This note sets out measurements from patent EP1377579B1 (Aventis Pharmaceuticals Inc., priority 2000, dated 2002).

The structures appear in SMILES notation. pIC50: −log10 of the molar value. Where a name gives a salt, the structure may show the parent alone.

One test has as its system MDA-MB-435. Put plainly: In vitro proliferation assay (MTT), MDA-MB-435. Format: cell-based, human. The following applies: Homo sapiens, MDA-MB-435, MTT assay; value (SD, n) where given; read-out: MB-435 Breast (IC50 µM). The gist of the method: (§1)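 MTT viability, 3 d compound treatment; seeding 1000–2500 cells/well, overnight attachment; formazan in DMSO, A570; IC50 fitted from raw absorbance.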

The next test deals with cdk1/cyclin B (Homo sapiens, UniProt P06493). Nature of the test: Cyclin-dependent kinase assay, cdk1/cyclin B. The note with it: CDK1 IC50, nM, Histone H1, 10 µM ATP.
The target of another test is cdk2/cyclin E (Homo sapiens, UniProt P24941). Put plainly: Cyclin-dependent kinase assay, cdk2/cyclin E. The note with it: CDK2 IC50, nM, GST-pRb substrate, 10 µM ATP.
The target in another test is cdk4/cyclin D1 (Homo sapiens, UniProt P11802). Put plainly: Cyclin-dependent kinase assay, cdk4/cyclin D1. The class given is biochemical. The note with it: cyclin D1/cdk4; GST-pRb substrate, 10 µM ATP.
The subject of the next test is PC-3. Nature of the test: In vitro proliferation assay (MTT), PC-3. The class given is cell-based, human. The following applies: Homo sapiens, PC-3, MTT assay; value (SD, n) where given; read-out: PC-3 Prostate (IC50 µM). Summed up:
as §1
(In general: Tetrazolium assays rely on reduction of a dye to a coloured formazan, in cell work by metabolically active cells.)

Chain of cdk4/cyclin D1 (P11802 whole entry): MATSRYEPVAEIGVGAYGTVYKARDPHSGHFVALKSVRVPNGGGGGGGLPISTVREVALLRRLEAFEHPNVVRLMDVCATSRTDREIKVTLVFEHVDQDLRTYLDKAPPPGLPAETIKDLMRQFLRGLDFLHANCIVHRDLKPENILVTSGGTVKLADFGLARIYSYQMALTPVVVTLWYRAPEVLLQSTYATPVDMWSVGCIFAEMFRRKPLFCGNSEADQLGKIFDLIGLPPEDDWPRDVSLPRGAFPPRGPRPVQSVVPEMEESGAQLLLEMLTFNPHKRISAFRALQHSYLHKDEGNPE
Chain of cdk4/cyclin D1 (P24385 whole entry partner): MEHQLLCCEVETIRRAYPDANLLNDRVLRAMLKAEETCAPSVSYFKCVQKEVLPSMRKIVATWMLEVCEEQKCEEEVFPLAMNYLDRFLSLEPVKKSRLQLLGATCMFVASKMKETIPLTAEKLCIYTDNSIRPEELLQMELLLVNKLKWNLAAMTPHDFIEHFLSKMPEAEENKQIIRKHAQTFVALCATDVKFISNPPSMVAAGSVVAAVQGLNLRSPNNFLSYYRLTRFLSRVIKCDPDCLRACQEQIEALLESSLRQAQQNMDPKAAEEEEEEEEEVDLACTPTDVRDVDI
Chain of cdk1/cyclin B (P06493 whole entry): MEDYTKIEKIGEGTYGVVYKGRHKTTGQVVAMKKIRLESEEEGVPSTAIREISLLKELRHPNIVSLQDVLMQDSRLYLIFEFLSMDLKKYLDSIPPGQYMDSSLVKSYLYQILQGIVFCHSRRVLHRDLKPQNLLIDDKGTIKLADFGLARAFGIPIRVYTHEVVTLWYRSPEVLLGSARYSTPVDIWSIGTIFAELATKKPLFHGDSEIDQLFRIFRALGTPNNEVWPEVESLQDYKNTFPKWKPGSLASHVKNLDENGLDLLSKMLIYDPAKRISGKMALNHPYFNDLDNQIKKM
Chain of cdk1/cyclin B (P14635 whole entry partner): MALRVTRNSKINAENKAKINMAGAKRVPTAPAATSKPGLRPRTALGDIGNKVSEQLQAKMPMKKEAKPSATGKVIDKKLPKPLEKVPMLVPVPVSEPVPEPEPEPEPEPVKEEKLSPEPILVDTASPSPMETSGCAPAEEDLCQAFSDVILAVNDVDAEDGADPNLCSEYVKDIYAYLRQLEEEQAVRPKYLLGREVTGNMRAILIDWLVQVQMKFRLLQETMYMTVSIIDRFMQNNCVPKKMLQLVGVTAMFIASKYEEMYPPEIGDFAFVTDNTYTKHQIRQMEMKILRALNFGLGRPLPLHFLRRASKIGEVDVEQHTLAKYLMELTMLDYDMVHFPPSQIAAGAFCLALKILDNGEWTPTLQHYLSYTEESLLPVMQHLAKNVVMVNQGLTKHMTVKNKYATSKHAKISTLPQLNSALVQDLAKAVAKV
Experimental for cdk1/cyclin B: The IC50 values for cdk1/cyclin B, cdk2/cyclin E, and cdk4/cyclin D1 inhibition are determined using the following methods: • The cdk1 sequence (accession number Y00272) is amplified by PCR and cloned into the BamHI and SalI sites of pFASTBAC1 (Life Technologies).
The cyclin B1 sequence (accession number M25753) is amplified by PCR and cloned into the BamHI and SalI sites of pFASTBAC1 (Life Technologies).
The insect cell (Sf9) expression is optimized for each of the CDK/cyclin pairs according to the manufacturer's protocols (Life Technologies). For cdk4-HA/cyclin D1-His6 an infection of 0.1 multiplicity of infection (MOI) for 48 hours gives the best expression levels of the complex as well as activity.
The viruses are added to the cells and the culture is incubated at 27°C for the desired time. The cells are harvested by centrifugation at 3000 rpm for 10 minutes. The cells are snap frozen on dry ice and stored at - 80°C.
Cell extracts are made following a standard procedure. The cell pellet is resuspended in lysis buffer (50 mM HEPES, pH 8.0, 10 mM MgCl2, 1 mM DTT, 2.5 mM EGTA, 1 mM EDTA, 10 mM β-glycerophosphate, 1 mM sodium vanadate, 1 mM sodium fluoride, 1 x Protease inhibitor cocktail). The cells are lysed using the microfluidizer (Microfluidics) for 20 minutes. Cell debris is removed by centrifugation at 100,000 x g. The cell extracts are aliquoted in 1 ml aliquots, frozen on dry ice, and stored at -80°C.
The kinase reactions are performed following a standard procedure. The enzyme and inhibitor are diluted in kinase buffer (50 mM HEPES, pH 8.0, 10 mM MgCl2, 2.5 mM EGTA, 10 mM β-glycerophosphate, 1 mM sodium vanadate, 1 mM sodium fluoride, and 1 mM DTT) and pre-incubated for 30 minutes. […] The cdk1 enzyme activity is assayed using Histone H1 (Sigma) in the presence of 10 µM ATP for 30 min at room temperature. The reactions are terminated by the addition of 50 µL of 10 mM cold ATP to stop the reactions. The reactions are transferred to a pre-soaked 96-well multi-screen plate containing 30 µL of 100% TCA per well. After incubation for one hour at room temperature, the plates are washed twice with 200 µl of 20% TCA, followed by 200 µl of 10% TCA and finally with 200 µl of 5% TCA. After drying the plates at room temperature, the filter plates are placed in adapter plates (Packard) and 40 µl of Microscint-O® (Packard) is added to each well. Top Seal A film is used to cover the plates before counting in a Top Count Scintillation Counter.
The % remained activity of the indicated Cdk/cyclin kinase complex in the presence of inhibitor is calculated by the ratio of cpm in the presence of inhibitor to cpm in the absence of inhibitor (%Activity = vi/vo x 100%).

As usually defined, the IC50 is the concentration that inhibits the measured activity by half. In general, pIC50 refers to the negative decadic logarithm of the IC50, by convention in mol/L. Low values mean a large IC50, high ones a small IC50. Consider `CC(C)S(=O)(=O)N1CCC(Nc2nc(N[C@H]3CC[C@H](N)CC3)nc3c2ncn3C2CCCC2)CC1` [compound 125, trans-N^2-(4-Amino-cyclohexyl)-9-cyclopentyl-N^6-[1-(propane-2-sulfonyl)-piperidin-4-yl]-9H-purine-2,6-diamine dihydrochloride], for which the IC50 was determined as 1.03 µM with MDA-MB-435, 180 nM on cdk1/cyclin B, 38 nM against cdk2/cyclin E and 1.29 µM with PC-3. At cdk4/cyclin D1, this molecule gave a negative-log IC50 (pIC50) of 7.21.
In the case of `N[C@H]1CC[C@H](Nc2nc(NC3CCN(S(=O)(=O)c4ccc(C(=O)O)cc4)CC3)c3ncn(C4CCCC4)c3n2)CC1` [compound 126, trans-4-{4-[2-(4-Amino-cyclohexylamino)-9-cyclopentyl-9H-purin-6-ylamino]-piperidine-1-sulfonyl}-benzoic acid dihydrochloride], the IC50 with MDA-MB-435 is 19.7 µM; against cdk1/cyclin B it was 20 nM; on cdk2/cyclin E it was 6 nM; in the test on PC-3, 16.8 µM. This molecule also gave a pIC50 against cdk4/cyclin D1 of 7.26.
On to `N[C@H]1CC[C@H](Nc2nc(NC3CCN(S(=O)(=O)c4cccc([N+](=O)[O-])c4)CC3)c3ncn(C4CCCC4)c3n2)CC1` [compound 127, trans-N^2-(4-Amino-cyclohexyl)-9-cyclopentyl-N^6-[1-(3-nitro-benzenesulfonyl)-piperidin-4-yl]-9H-purine-2,6-diamine dihydrochloride], for which the IC50 is 0.61 µM in the test on MDA-MB-435, 14 nM against cdk1/cyclin B, 17 nM on cdk2/cyclin E and 0.62 µM in the test on PC-3. The pIC50 against cdk4/cyclin D1 is 7.32.
Taken in the same sequence, the figures for `CCCCS(=O)(=O)N1CCC(Nc2nc(N[C@H]3CC[C@H](N)CC3)nc3c2ncn3C2CCCC2)CC1` [compound 129, trans-N^2-(4-Amino-cyclohexyl)-N^6-[1-(butane-1-sulfonyl)-piperidin-4-yl]-9-cyclopentyl-9H-purine-2,6-diamine dihydrochloride] were 0.46 µM, 60 nM, 9 nM, 0.64 µM and 7.22.
For `CC(C)(C)c1ccc(S(=O)(=O)N2CCC(Nc3nc(N[C@H]4CC[C@H](N)CC4)nc4c3ncn4C3CCCC3)CC2)cc1` [compound 130, trans-N^2-(4-Amino-cyclohexyl)-N^6-[1-(4-tert-butyl-benzenesulfonyl)-piperidin-4-yl]-9-cyclopentyl-9H-purine-2,6-diamine dihydrochloride] the same measures were 0.8 µM, 8 nM, 53 nM, 2.29 µM and 6.80.
For `CCCS(=O)(=O)N1CCC(Nc2nc(N[C@H]3CC[C@H](N)CC3)nc3c2ncn3C2CCCC2)CC1` [compound 131, trans-N^2-(4-Amino-cyclohexyl)-N^6-[1-(propane-1-sulfonyl)-piperidin-4-yl]-9-cyclopentyl-9H-purine-2,6-diamine dihydrochloride] the same measures were 0.89 µM, 100 nM, 17 nM, 1.48 µM and 7.15.
Regarding `N[C@H]1CC[C@H](Nc2nc(NC3CCN(S(=O)(=O)CC(F)(F)F)CC3)c3ncn(C4CCCC4)c3n2)CC1` [compound 133, trans-N^2-(4-Amino-cyclohexyl)-9-cyclopentyl-N^6-[1-(2,2,2-trifluoro-ethanesulfonyl)-piperidin-4-yl]-9H-purine-2,6-diamine dihydrochloride], the IC50 amounted to 9.1 µM with MDA-MB-435, 200 nM against cdk1/cyclin B, 55 nM against cdk2/cyclin E and 8.97 µM in the test with PC-3. Further, at cdk4/cyclin D1, the pIC50 is 7.07.
Take `N[C@H]1CC[C@H](Nc2nc(NC3CCN(S(=O)(=O)c4ccc(OC(F)(F)F)cc4)CC3)c3ncn(C4CCCC4)c3n2)CC1` [compound 134, trans-N^2-(4-Amino-cyclohexyl)-9-cyclopentyl-N^6-[1-(4-trifluoromethoxy-benzenesulfonyl)-piperidin-4-yl]-9H-purine-2,6-diamine dihydrochloride]: the IC50 with MDA-MB-435 came out at 0.46 µM; against cdk1/cyclin B, 200 nM; on cdk2/cyclin E it was 35 nM; in the test with PC-3 it was 0.76 µM. Besides, the pIC50 at cdk4/cyclin D1 is 7.08.
In the case of `N[C@H]1CC[C@H](Nc2nc(NC3CCN(S(=O)(=O)c4cccc(C(=O)O)c4)CC3)c3ncn(C4CCCC4)c3n2)CC1` [compound 135, dihydrochloride], the IC50 with MDA-MB-435 was found to be 3.38 µM; against cdk1/cyclin B it was 80 nM; against cdk2/cyclin E it was 4 nM; with PC-3, 4.05 µM. For the same molecule, the pIC50 at cdk4/cyclin D1 was 7.21.
As to `N[C@H]1CC[C@H](Nc2nc(NC3CCN(S(=O)(=O)c4ccccc4Br)CC3)c3ncn(C4CCCC4)c3n2)CC1` [compound 136, trans-N^2-(4-Amino-cyclohexyl)-9-cyclopentyl-N^6-[1-(2-bromo-benzenesulfonyl)-piperidin-4-yl]-9H-purine-2,6-diamine dihydrochloride], the IC50 in the test on MDA-MB-435 turned out to be 0.44 µM; on cdk1/cyclin B, 50 nM; on cdk2/cyclin E, 37 nM; with PC-3, 0.68 µM. The negative-log IC50 (pIC50) on cdk4/cyclin D1 was 8.00.
With `COc1ccc(S(=O)(=O)N2CCC(Nc3nc(N[C@H]4CC[C@H](N)CC4)nc4c3ncn4C3CCCC3)CC2)cc1OC` [compound 137, trans-N^2-(4-Amino-cyclohexyl)-9-cyclopentyl-N^6-[1-(3,4-dimethoxy-benzenesulfonyl)-piperidin-4-yl]-9H-purine-2,6-diamine dihydrochloride], the IC50 in the test on MDA-MB-435 came to 0.47 µM; against cdk1/cyclin B, 26 nM; on cdk2/cyclin E, 7 nM; with PC-3 it was 1.15 µM. The molecule also had a pIC50 against cdk4/cyclin D1 of 6.84.
As to `N[C@H]1CC[C@H](Nc2nc(NC3CCN(S(=O)(=O)c4ccc(Cl)c(Cl)c4)CC3)c3ncn(C4CCCC4)c3n2)CC1` [compound 138, trans-N^2-(4-Amino-cyclohexyl)-9-cyclopentyl-N^6-[1-(3,4-dichloro-benzenesulfonyl)-piperidin-4-yl]-9H-purine-2,6-diamine dihydrochloride], the IC50 in the test with MDA-MB-435 stood at 0.54 µM; on cdk1/cyclin B, 40 nM; on cdk2/cyclin E, 60 nM; in the test on PC-3, 1.16 µM. On cdk4/cyclin D1, this molecule had a pIC50 of 7.16.
Taken in the same sequence, the figures for `CCS(=O)(=O)N1CCC(Nc2nc(N[C@H]3CC[C@H](N)CC3)nc3c2ncn3C2CCCC2)CC1` [compound 139, trans-N^2-(4-Amino-cyclohexyl)-9-cyclopentyl-N^6-(1-ethanesulfonyl-piperidin-4-yl)-9H-purine-2,6-diamine dihydrochloride] were 1.19 µM, 23 nM, 6 nM, 1.13 µM and 7.19.
Taken in the same sequence, the figures for `N[C@H]1CC[C@H](Nc2nc(NC3CCN(S(=O)(=O)c4ccc(Cl)c([N+](=O)[O-])c4)CC3)c3ncn(C4CCCC4)c3n2)CC1` [compound 140, trans-N^2-(4-Amino-cyclohexyl)-N^6-[1-(4-chloro-3-nitro-benzenesulfonyl)-piperidin-4-yl]-9-cyclopentyl-9H-purine-2,6-diamine dihydrochloride] were 2.76 µM, 36 nM, 41 nM, 4.56 µM and 7.12.
As for `CN(C)c1cccc2c(S(=O)(=O)N3CCC(Nc4nc(N[C@H]5CC[C@H](N)CC5)nc5c4ncn5C4CCCC4)CC3)cccc12` [compound 141, trans-N^2-(4-Amino-cyclohexyl)-9-cyclopentyl-N^6-[1-(5-dimethylamino-naphthalene-1-sulfonyl)-piperidin-4-yl]-9H-purine-2,6-diamine dihydrochloride], the IC50 was 0.86 µM with MDA-MB-435, 27 nM against cdk1/cyclin B, 61 nM on cdk2/cyclin E and 1.49 µM with PC-3. On cdk4/cyclin D1, this molecule showed a pIC50 of 7.18.
On to `COc1ccc(S(=O)(=O)N2CCC(Nc3nc(N[C@H]4CC[C@H](N)CC4)nc4c3ncn4C3CCCC3)CC2)cc1` [compound 142, trans-N^2-(4-Amino-cyclohexyl)-9-cyclopentyl-N^6-[1-(4-methoxy-benzenesulfonyl)-piperidin-4-yl]-9H-purine-2,6-diamine dihydrochloride], for which the IC50 in the test on MDA-MB-435 is 0.38 µM; against cdk1/cyclin B, less than 5 nM; against cdk2/cyclin E it was 9 nM; with PC-3, 0.61 µM. Also, the pIC50 on cdk4/cyclin D1 was 7.33.
`N[C@H]1CC[C@H](Nc2nc(NC3CCN(S(=O)(=O)c4ccccc4[N+](=O)[O-])CC3)c3ncn(C4CCCC4)c3n2)CC1` [compound 143, trans-N^2-(4-Amino-cyclohexyl)-9-cyclopentyl-N^6-[1-(2-nitro-benzenesulfonyl)-piperidin-4-yl]-9H-purine-2,6-diamine dihydrochloride]: the IC50 with MDA-MB-435 worked out at 0.61 µM; against cdk1/cyclin B, 7.5 nM; against cdk2/cyclin E it was 28 nM; with PC-3, 0.45 µM. The same molecule showed a pIC50 at cdk4/cyclin D1 of 6.81.
Turning to `CC(C)n1cnc2c(NC3CCN(S(=O)(=O)c4ccc(C#N)cc4)CC3)nc(N[C@H]3CC[C@H](N)CC3)nc21` [compound 145, trans-4-{4-[2-(4-Amino-cyclohexylamino)-9-isopropyl-9H-purin-6-ylamino]-piperidine-1-sulfonyl} -benzonitrile dihydrochloride], the IC50 in the test with MDA-MB-435 was 4.12 µM; against cdk1/cyclin B it was 21 nM; at cdk2/cyclin E, 70 nM; in the test on PC-3, 6.32 µM. For the same molecule, the negative logarithm of the IC50 (pIC50) against cdk4/cyclin D1 is 5.06.
